# Laboratory results as given in article PMC11006142, “A divergent protein kinase A regulatory subunit essential for morphogenesis of the human pathogen Leishmania” (PLOS Pathogens, 2024).
# Experiments:
# [1] = target: T1, PKAR3 (protein kinase A regulatory subunit 3) (Leishmania donovani, UniProt A0A3S7X836); assay: isothermal titration calorimetry (ITC), one-site model; assay type: binding
# T1 construct: gene LdCL_340034800
# [2] = target: subpellicular microtubules (SPMT) of L. donovani promastigotes, detected as β-tubulin (L. donovani (endogenous in promastigotes)); assay: FRET or BRET; fixed L. donovani promastigotes labelled with primary antibodies and secondary antibodies with Alexa Fluor 568 (donor) and 647 (acceptor); corrected acceptor FRET (Youvan), confocal microscopy
# T1 sequence (A0A3S7X836 entry or part of it): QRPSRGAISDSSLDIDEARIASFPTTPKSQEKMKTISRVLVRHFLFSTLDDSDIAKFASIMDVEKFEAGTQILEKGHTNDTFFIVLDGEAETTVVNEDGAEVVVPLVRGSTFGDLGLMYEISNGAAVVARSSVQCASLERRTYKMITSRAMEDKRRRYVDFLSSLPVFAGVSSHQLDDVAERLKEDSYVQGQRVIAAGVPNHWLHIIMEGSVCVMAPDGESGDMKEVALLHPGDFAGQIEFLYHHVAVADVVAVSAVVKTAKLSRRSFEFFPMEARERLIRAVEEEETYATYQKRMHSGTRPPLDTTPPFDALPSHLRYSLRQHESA
Compound,Kd [1],decrease of FRET-positive pixels per cell against PKAR3FL [2]
"N#Cc1cn([C@@H]2O[C@H](CO)[C@@H](O)[C@H]2O)c2ncnc(O)c12 [7-CN-7-C-Ino, 7-cyano-7-deaza-inosine]",1 nM,–
"N#Cc1cn([C@@H]2O[C@H](CO)[C@@H](O)[C@H]2O)c2ncnc(N)c12 [Toyo, Toyocamycin]",3.8 nM,–
L. donovani PKAR3 lacking the N-terminal 90 amino acids (domain or fragment),–,30%
